Test results: patent publication US20050181076A1, “Compositions and methods for treatment of diabetes” (priority 1999, published 2005)

What was measured:
[1] = system: Type 1 (BB/Wor) diabetic rats; assay: single luteolin treatment in chronic Type I diabetic rats, blood glucose 0-6 hours; assay type: in vivo, rat; details: for average blood glucose at 6 hours: from 415 (insulin) and 445 (luteolin) mg/dl at time 0; for decrease in blood glucose levels: within 6 hours, luteolin 3 mg intragastrically, PZI insulin 0.9-1.2 mU/day subcutaneous
Method: Animal tests of luteolin were made at BRM (Biomedical Research Models, Inc.) an East coast contract research organization (CRO) that specializes in diabetes research. […] Historically, these strains have been widely used in similar pre-clinical studies to predict anti-diabetogenic efficacy. […] In this study, lean male diabetics were randomly assigned to 3 treatment groups (3-4 rats/group). […] Blood glucose was evaluated from time 0 through 6 hours (11 AM-5 PM). […] This response was fully consistent with prior work in the Type I rat model. […] In comparison, there was no reduction in the hyperglycemic state in the control group over the same interval (414 to 404 mg/dl).

diabetics = assay: Brickellia flavonoids administered to diabetics; assay type: in vivo; details: for results in diabetics compared with the extract: flavonoids extracted and fractionated from Brickellia californica; for effectiveness in treating diabetes: alone or in combination
Description: The flavonoids specifically used were dihydrokaemferol and apigenin, a flavone. […] I have discovered an underlying “molecular switch” that controls both forms of diabetes. This “switch” can be operated by luteolin and similar flavonoids.

[2] = system: diabetic test animals (rats and mice); assay: Brickellia extract and flavonoids in diabetic test animals; assay type: in vivo
Method: It is believed that the Brickellia californica extract includes the flavonoids dihydrokaemferol, apigenin, luteolin, myricetin and quercetin. Further, the many other species of Brickellia contain these, or similar flavonoids, albeit in different proportions, and should also be effective in treatment of diabetes. Experiments with diabetic test animals (rats and mice) were carried out. […] Further, the administration of synthetic versions of the Brickellia flavonoids were also effective at lowering glucose levels.

[3] = target: Kv1.3 voltage gated potassium channel (Homo sapiens, UniProt P22001); assay: patch clamp analysis of Kv1.3 block; assay type: cell-based
Description: When the toxic CD8^− Natural Killer Cells combines with the CD4^− Helper T Cells at cystein they electronically stimulate calmodulin. This voltage sensor activates one of the 80+ super gene channels necessary for the activation of the CD4^− and CD8^− T Cells, Kv1.3 a voltage gated potassium channel. If this channel is not activated by calmodulin the T-Cells remain in their resting states. […] There are 200 pores in a resting Beta cell. When cell potential reaches 1.3 nVolts, the Kv1.3, voltage gated potassium channel opens to expose the tyrosine kinase tails. These kinases when stimulated turn on the ras-Oncogene, a cancer promoter, which turns on Protein Kinase C, another tumor promoter. These drive the Nuclear Factors of the Activated T-Cell, such as cAMP; which stimulates the susceptibility genes associated with diabetes such as those on chromosome 19q13.3. These in turn produce InterLeukin-2, an inflammatory cytokine messenger signaling further T-Cell proliferation. When CD8^− cells sample the external receptors of the Beta cell, they find and bind to laminin to sites, such as AGM1, and releases InterLeukin-2 upon calcium loading. This inflammatory cytokine causes cell activation and suppression of insulin release. […]

[4] = system: Type II (BBZDR/Wor) diabetic rats; assay: extended (two weeks) luteolin treatment of obese Type II diabetic rats; assay type: in vivo, rat
Description: In the next experiment we elected to provide these same rats with a standardized dose over an extended period of treatment. […] The data were expressed for each rat as a percentage change in blood glucose level relative to each individual pre-treatment level.

[5] = system: Type II (BBZDR/Wor) diabetic rats; assay: luteolin dose study in chronic Type 2 diabetic rats over 24 hr; assay type: in vivo, rat
Method: Animal tests of luteolin were made at BRM (Biomedical Research Models, Inc.) an East coast contract research organization (CRO) that specializes in diabetes research. […] Historically, these strains have been widely used in similar pre-clinical studies to predict anti-diabetogenic efficacy.
First, a 24 hour baseline study was performed on 9 chronic Type 2 rats. We found no significant change in hyperglycemia over this 24 hour period of analysis in the diabetic rats. […] Blood glucose analysis was evaluated every 2 hours.
Unfortunately, that animal died sometime before the 24 hr time point as a result of an accidental perforation of the esophagus during the administration of drug.

Kv1.3 voltage gated potassium channel, sequence (P22001 whole entry): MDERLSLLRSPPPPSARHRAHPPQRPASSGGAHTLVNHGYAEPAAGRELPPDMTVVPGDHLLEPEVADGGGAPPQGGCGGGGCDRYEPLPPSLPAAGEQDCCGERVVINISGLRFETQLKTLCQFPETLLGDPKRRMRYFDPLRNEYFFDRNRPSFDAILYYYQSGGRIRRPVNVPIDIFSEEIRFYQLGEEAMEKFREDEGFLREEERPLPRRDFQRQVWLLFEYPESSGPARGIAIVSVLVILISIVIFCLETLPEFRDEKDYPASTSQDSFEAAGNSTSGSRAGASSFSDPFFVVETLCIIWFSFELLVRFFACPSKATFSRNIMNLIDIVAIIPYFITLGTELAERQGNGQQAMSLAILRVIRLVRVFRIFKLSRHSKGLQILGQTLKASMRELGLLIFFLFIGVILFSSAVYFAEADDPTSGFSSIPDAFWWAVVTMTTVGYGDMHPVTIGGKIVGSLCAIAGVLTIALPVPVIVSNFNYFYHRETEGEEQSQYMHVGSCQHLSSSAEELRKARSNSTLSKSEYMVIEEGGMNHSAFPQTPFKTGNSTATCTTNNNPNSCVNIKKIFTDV

With insulin [reference compound] the “average blood glucose at 6 hours” value [1] was 112 mg/dL and the “decrease in blood glucose levels” value [1] was 75%.

With `O=c1cc(-c2ccc(O)cc2)oc2cc(O)cc(O)c12` [apigenin] the “results in diabetics compared with the extract” value (diabetics) was “results similar to those produced by the extract”.

With `O=c1cc(-c2ccc(O)c(O)c2)oc2cc(O)cc(O)c12` [luteolin] the “rank among treatments involving a single flavonoid” value [2] was “the most effective agent”, the “effectiveness in treating diabetes” value (diabetics) was “effective in treating diabetes” and the “block of Kv1.3 channel at 100 nM” value ([3]; luteolin tested at 100 nM, cell remained in its resting state) was “blocked completely”. The “block of Kv1.3 channel” value ([3]; patch clamp analysis) was “blocks this channel”, the “average drop of blood glucose levels” value ([4]; Type II rats, 50 mg 3x/day for two weeks) was 41.1% and the “average blood glucose after treatment” value ([4]; Type II rats, 50 mg 3x/day for two weeks, from 660 mg/dl) was 389 mg/dL. For the same molecule, the “increase in blood glucose in one rat” value ([4]; one rat with esophageal fistula that likely prohibited effective dosing, 50 mg 3x/day two weeks) was 9.3%, the “average blood glucose at 6 hours” value [1] was 307 mg/dL and the “decrease in blood glucose levels” value [1] was 31%. For the same molecule, the “decrease in blood glucose levels, 50 mg three times a day” value ([5]; Type 2 diabetic rats, 150 mg total, within 24 hr) was 10.2%, the “drop in blood glucose, 150 mg three times a day” value ([5]; Type 2 diabetic rats, 450 mg total, 24 hr) was 22.9% and the “decrease in glucose, 250 mg three times a day” value ([5]; Type 2 diabetic rats, 750 mg total, 24 hr) was 27.7%. For the same molecule, the “reduction of hyperglycemia over all doses” value ([5]; Type II diabetic rats, over a 24 hour period, dose-dependent) was 10-28%, the “reduction of blood glucose in one rat” value ([5]; one Type 2 rat, intermediate dose (150 mg), within 18 hr) was 52% and the “blood glucose of one rat after treatment” value ([5]; one Type 2 rat, intermediate dose, from 777 mg/dl, within 18 hr) was 372 mg/dL.

In the case of `O=C1c2c(O)cc(O)cc2O[C@H](c2ccc(O)cc2)[C@H]1O` [dihydrokaemferol], the “results in diabetics compared with the extract” value (diabetics) is reported as “results similar to those produced by the extract”.

With `O=c1c(O)c(-c2cc(O)c(O)c(O)c2)oc2cc(O)cc(O)c12` [myricetin] the “effectiveness in treating diabetes” value (diabetics) was “effective in treating diabetes”.
